Laboratory results reported in patent US20250127896A1, “CHIMERIC TIM4 RECEPTORS AND USES THEREOF” (CERO THERAPEUTICS HOLDINGS, INC., priority 2021, published 2025).

How the values were obtained:
REC-1 cells [1] = test: Cytokine induction in CER T / REC-1 co-cultures (multiparametric ELISA); type: cell-based; conditions: for cytokine response (GrB, IFN-γ, TNF-α) with BTK inhibitor: ibrutinib-induced phosphatidylserine exposure
Protocol: FIGS. 16A-16H: Induction of Cytokines in Ibrutinib-Treated Co-Cultures of CER1183 and CER1234 T cells and REC-1 Target Cells. Samples depicted in bar graphs from left to right, untransduced, CER-1183, and CER-1234. FIG. 16A: TNFα induction. FIG. 16B: IL-2 induction. FIG. 16C: IFNγ. FIG. 16D: IL-5 induction. FIG. 16E: IL-6 induction. FIG. 16F: IL-10 induction. FIG. 16G: IL-4 induction. FIG. 16H: granzyme B induction.
Cytokine induction was assessed by multiparametric ELISA using conditioned supernatants harvested after 96 hours in the cytotoxicity assay described above.
CER T-cell activation was assessed by measuring induction of IFN-gamma by plate- and cell-based assays. Single induction plate assay: varying concentrations of phosphatidylserine (PS) or phosphatidylethanolamine (PE), a control membrane phospholipid not recognized by wild type TIM-4 (wtTIM-4), were coated onto high-binding tissue culture plates. CER T cells were added and IFN-γ levels were measured 24 hours after ligand exposure by ELISA. EC50 concentrations were determined by nonlinear regression (agonist vs. response-variable slope (4 parameters)). Induction by recursive stimulation plate assay: CER T cells were added to phosphatidylserine coated plates (2.5-20 μg/mL PS coating). Five days later, CER T cells were transferred to uncoated plates with fresh T cell optimizer media for 24 hours. Then, CER T cells were transferred again to a fresh PS coated plate. Supernatant was collected to assess IFN-γ induction by ELISA at various timepoints during re-stimulation (24, 72, and 120 hours). Cell-based assay: cytokine induction was assessed by multiparametric ELISA using conditioned supernatants harvested after 120 hours from the cytotoxicity assay described below.

REC-1 cells [2] = test: T-cell activation markers PD-1 and 4-1BB in co-culture with REC-1 cells (flow cytometry); type: cell-based; conditions: co-culture with REC-1 cells in the presence of 0.5 μM ibrutinib, 96 hours
Protocol: FIGS. 15A-15B: Induction of Cell-Surface Markers of T-Cell Activation in Ibrutinib-Treated Co-Cultures of CER1183 and CER1234 T cells and REC-1 Target Cells. Samples depicted in bar graphs from left to right, untransduced, CER-1183, and CER-1234. FIG. 15A: PD-1 expression in co-cultures. FIG. 15B: 4-1BB expression in co-cultures.
T-cell activation markers programmed death-1 (PD-1) and 4-1BB were evaluated on viable CD3+ T cells by flow cytometry using commercially available fluorochrome-conjugated antibodies. […] Assays were conducted 96 hours after initiation of co-culture of CER T cells with REC-1 cells.

REC-1 cells [3] = test: Phagocytosis of pHrodo-labeled ibrutinib-treated REC-1 cells by CER T cells; type: cell-based
Text: FIG. 13A: Representative flow cytometry histograms showing engulfment of pHrodo red-labeled REC-1 target cells by CER1234, CER1161, and CER1183 T cells. FIG. 13B: Graphical summary of flow cytometry data showing engulfment of pHrodo red-labeled REC-1 target cells by CER1234, CER1161, and CER1183 T cells. * P<0.01, ** P<0.001, *** P<0.0001; mean+SD, n=4. FIG. 13C: Representative fluorescence microscopy images (at 40×) showing engulfment of pHrodo red-labeled REC-1 target cells by CER1234, CER1161, and CER1183 T cells. FIG. 13D: Engulfed pHrodo-green-labeled REC-1 tumor fragments co-localize into Lyso-tracker red-labeled lysosomes.
Phagocytosis was assessed in co-culture assays of REC-1 cells with CER T cells. […] The percentage of pHrodo red-positive cells was determined by flow cytometry after 16 or 40 hours of co-culture. The localization of tumor fragments in CER T-cell lysosomal compartments was assessed in a separate experiment with REC-1 cells labeled with pHrodo green; following co-culture, all cells were labeled with Lyso-tracker red. Visualization of engulfment was performed by fluorescence microscopy. 1-way ANOVA with Dunnett's post hoc test was performed compared with untransduced T cells.

Jeko1 TMEM30A−/− cells = conditions: mantle cell lymphoma mouse model
Protocol: Using an engineered TMEM30a phospholipid flippase knockout JeKo-1 lymphoma cell line with constitutive phosphatidylserine exposure (JeKo-1 PS^+), tumor fragment uptake, cytotoxicity, cytokine secretion (GrB, IFN-γ, and TNF-α), and APC-like activity were evaluated in vitro. JeKo-1 PS^+ cells were labeled with the pH-sensitive pHrodo™ dye to quantify the uptake of tumor cells. Chimeric Tim4 receptor-T cells were tested for antigen-display capacity by evaluating autologous HPV E7 TCR T cell activation and proliferation following Chimeric Tim4 receptor-T cell co-culture with JeKo PS+ cells and HPV-derived peptides. Finally, Chimeric Tim4 receptor T cell anti-tumor activity was examined in xenografted MCL models. Statistical analysis was performed using 2-way ANOVA.

[4] = system: JeKo-1 MCL mCherry+ cells; test: IFN-γ secretion of CER1236 T cells co-cultured with ibrutinib-treated JeKo-1 cells (ELLA); type: cell-based; conditions: JeKo-1 pretreated 20 μM Ibrutinib 48 h, co-culture 0.5 μM Ibrutinib, 120 h
Protocol: After 120 h, IFN-γ secretion was measured using ELLA automated ELISA.

NSCLC H1975 cells [5] = test: Cytokine production by CER1236 T cells co-cultured with H1975 cells and osimertinib (Ella); type: cell-based; conditions: 96 h, E:T 1:4, vs vehicle and untransduced T cells
Protocol: FIG. 40: Graphs showing cytokine production by CER1236 T cells co-cultured with NSCLC H1975 cells with 100 nM osimertinib or vehicle (left to right: granzyme B, TNFα, IL-6, and IFNγ).
Cytokine production was also measured in CER1236 T cells co-cultured with H1975 NSCLC cells pre-treated with osimertinib or vehicle. Ten-thousand NSCLC H1975 cells were cultured for 24 h with 100 nM Osimertinib or vehicle (DMSO) and then co-cultured with CER T cells for 96 h at an E:T of 1:4 in the presence or absence of 4.88 nM Osimertinib or vehicle. Effector:Target ratio was 1:4, and H1975 cells were plated at 10,000 cells/well. Cytokine production was determined by Ella assay.

NSCLC H1975 cells [6] = test: T cell expansion in H1975 co-culture with osimertinib (quantitative flow cytometry); type: cell-based
Protocol: FIG. 41: Bar graphs showing fold expansion of total CD3+ T cells (untransduced+vehicle, untransduced+osimertinib, CER1236+vehicle, CER1236+osimertinib) determined by quantitative flow cytometry using quantitation beads over a time course (48 hrs, 96 hrs, 120 hrs, and 144 hrs).
FIG. 42: Flow cytometry plots measuring CD3+ cells (y-axis) and H1975 cell (x-axis) in co-culture experiments with H1975 cells pretreated with vehicle or osimertinib ([…], 19.53 nM) and untransduced T cells (top row) or CER1236 T cells (bottom row).
Proliferation of CER1236 T cells co-cultured with H1975 NSCLC cells pre-treated with osimertinib or vehicle was also measured. […] Total CD3+ T cells fold expansion was determined by quantitative flow cytometry using quantitation beads over a time course (48 hrs, 96 hrs, 120 hrs, and 144 hrs). Experiment was performed twice, once with 5,000 target H1975 cells and once with 10,000 target H1975 cells.

## CER-1234: chimeric Tim4 receptor: Tim4 binding domain-CD28tm-CD28-TLR2 TIR-CD3z, SEQ ID NO:18; tested as transduced T cells
REC-1 cells [1]; co-culture with REC-1 cells, 0.5 μM ibrutinib
  IL-2, IL-4 and IL-6: nominally increased
REC-1 cells [1]; co-culture with REC-1 cells, 0.5 μM ibrutinib, 96 hours
  cytokine induction: TNF-α, IFN-γ, IL-10, IL-5, granzyme B: induced
REC-1 cells [1]
  cytokine response (GrB, IFN-γ, TNF-α) with BTK inhibitor: production of Th1 cytokines
REC-1 cells [1]; listed as CER1234
  cytokine response (GrB, IFN-γ, TNF-α) with BTK inhibitor: enhances CER1234 T cell cytokine response
REC-1 cells [2]
  PD-1 and 4-1BB expression on the T-cell surface: increased PD-1 and 4-1BB expression
REC-1 cells [3]; BTK inhibitor-primed REC-1 cells
  localization of internalized fragments: internalized fragments were localized to lysosomal compartments
REC-1 cells [3]; REC-1 pretreated 10 μM ibrutinib, 16 and 40 hours of co-culture
  engulfment of pHrodo red+ target cells: increased engulfment of pHrodo red+target cells relative to untransduced T cells

## CER-1236: chimeric Tim4 receptor: Tim4 binding domain-CD28tm-CD28-CD3z-TLR2 TIR, SEQ ID NO:19; tested as transduced T cells
Jeko1 TMEM30A−/− cells
  anti-tumor effect / tumor burden: showed anti-tumor effect
[4]
  IFN-γ response with ibrutinib: enhances CER1236 T cell IFN-γ response
NSCLC H1975 cells [5]
  cytokine production (granzyme B, TNFα, IL-6, IFNγ), combination with osimertinib: increased cytokine production
NSCLC H1975 cells [6]; 120 hours, 4:1 effector:target ratio, flow cytometry
  CD3+ T cell proliferation and H1975 cell numbers, osimertinib-treated H1975: CD3+ T cell proliferation was highest and H1975 cell numbers lowest
NSCLC H1975 cells [6]; E:T 1:4, 48, 96, 120, 144 hrs
  total CD3+ T cells fold expansion, combination with osimertinib: osimertinib drives CER1236 T cell proliferation
